{"source": "patent US11891365B2", "about": "“3-alkyl-4-amido-bicyclic [4,5,0] hydroxamic acids as HDAC inhibitors” (Valo Health, Inc., priority 2015, dated 2024)", "note": "pIC50: −log10 of the molar value.", "data": [{"target": "T1, Full length human recombinant HDAC6 protein (Homo sapiens, UniProt Q9UBN7)", "T1 sequence (Q9UBN7 1-1215)": "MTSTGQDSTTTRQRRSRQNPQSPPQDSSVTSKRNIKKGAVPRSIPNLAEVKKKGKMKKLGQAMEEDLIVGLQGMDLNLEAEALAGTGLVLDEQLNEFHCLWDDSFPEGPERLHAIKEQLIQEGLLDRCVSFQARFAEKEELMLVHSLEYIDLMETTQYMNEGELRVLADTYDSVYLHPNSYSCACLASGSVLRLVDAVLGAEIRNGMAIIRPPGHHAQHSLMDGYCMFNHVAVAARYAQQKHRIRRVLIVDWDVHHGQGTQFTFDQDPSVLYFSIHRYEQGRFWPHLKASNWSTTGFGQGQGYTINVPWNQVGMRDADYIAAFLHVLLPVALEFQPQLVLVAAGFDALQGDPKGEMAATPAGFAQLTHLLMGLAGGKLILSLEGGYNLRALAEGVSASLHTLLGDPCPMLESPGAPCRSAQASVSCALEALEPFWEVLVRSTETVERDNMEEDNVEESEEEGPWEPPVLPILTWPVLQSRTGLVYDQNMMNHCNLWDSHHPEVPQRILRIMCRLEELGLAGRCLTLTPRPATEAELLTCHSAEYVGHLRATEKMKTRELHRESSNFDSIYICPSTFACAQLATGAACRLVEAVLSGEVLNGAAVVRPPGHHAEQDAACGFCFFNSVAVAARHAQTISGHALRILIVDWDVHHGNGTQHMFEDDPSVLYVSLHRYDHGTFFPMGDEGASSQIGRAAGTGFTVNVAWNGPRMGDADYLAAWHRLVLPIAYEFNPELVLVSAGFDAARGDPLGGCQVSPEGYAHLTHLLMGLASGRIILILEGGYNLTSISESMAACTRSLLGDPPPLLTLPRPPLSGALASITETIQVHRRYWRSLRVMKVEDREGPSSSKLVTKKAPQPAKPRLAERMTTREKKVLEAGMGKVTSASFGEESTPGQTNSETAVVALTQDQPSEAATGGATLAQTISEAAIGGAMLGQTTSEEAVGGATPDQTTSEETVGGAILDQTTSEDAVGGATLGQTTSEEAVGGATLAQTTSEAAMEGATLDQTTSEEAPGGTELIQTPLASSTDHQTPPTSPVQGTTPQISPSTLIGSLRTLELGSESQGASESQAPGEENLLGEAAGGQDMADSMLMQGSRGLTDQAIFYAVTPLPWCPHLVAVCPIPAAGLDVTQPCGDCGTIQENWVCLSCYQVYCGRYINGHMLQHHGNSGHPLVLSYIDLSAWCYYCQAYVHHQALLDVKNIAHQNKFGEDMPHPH", "assay": "In vitro histone deacetylase assay: enzymatic HDAC6 electrophoretic mobility shift assay", "assay_type": "biochemical", "settings": "1 nM enzyme, 2 μM peptide substrate RHKK(Ac)-NH2, 25° C., 12 concentrations; read-out: Inhibitory Concentration (IC50) Values against HDAC6, Activity Range", "method": "The enzymatic HDAC6 assay was performed using electrophoretic mobility shift assay. […] The enzymatic reactions were assembled in 384 well plates in a total volume of 25 μL in a reaction buffer composing: 100 mM HEPES, pH7.5, 25 mM KCl, 0.1% bovine serum albumin, 0.01% Triton X-100, 1% DMSO (from compounds) 2 μM of the fluorescently labeled peptide substrate and enzyme. The enzyme was added at a final concentration of 1 nM. The peptide substrate RHKK(Ac)—NH2 was used. The compounds were tested at 12 concentrations spaced by 3× dilution intervals. Negative control samples ([…] in the absence of inhibitor) and positive control samples (100%-inhibition) were assembled in replicates of four in each assay plate. The reactions were incubated at 25° C. and quenched by the addition of 45 μL of termination buffer (100 mM HEPES, pH 7.5, 0.01% Triton X-100, 0.05% SDS).\nThe terminated assay plates were analyzed on LabChip® 3000 microfluidic electrophoresis instrument (Perkin Elmer/Caliper Life Sciences). The fluorescence intensity of the electrophoretically separated de-acetylated product and substrate peptide was measured. Activity in each sample was determined as the product to sum ratio (PSR): P/(S+P), where P is the peak height of the product peptide and S is the peak height of the substrate peptide. Percent inhibition (Pinh) is determined using the following equation:\nPinh=(PSR0%−PSRinh)/(PSR0%−PSR100%)*100, where PSRinh is the product sum ratio in the presence of inhibitor, PSR0% is the average product sum ration in the absence of inhibitor and PSR100% is the average product sum ratio in 100%-inhibition control samples. The IC50 values of inhibitors were determined by fitting the %-inhibition curves with 4 parameter dose-response model using XLfit 4 software.", "values": [{"smiles": "CC(=O)N1Cc2ccc(C(=O)NO)cc2OC[C@@H]1C", "note": "[(S)-4-acetyl-N-hydroxy-3-methyl-2,3,4,5-tetrahydrobenzo[f][1,4]oxazepine-8-carboxamide]", "pIC50": "6.30 to 7.00"}, {"smiles": "C[C@H]1c2cc(C(=O)NO)ccc2OCCN1C(=O)C1(C)CCC1", "note": "[(S)-N-hydroxy-5-methyl-4-(1-methylcyclobutane-1-carbonyl)-2,3,4,5-tetrahydrobenzo[f][1,4]oxazepine-7-carboxamide]", "pIC50": "6.30 to 7.00"}, {"smiles": "COC1(C(=O)N2CCOc3cc(C(=O)NO)ccc3C2)CC1", "note": "[N-hydroxy-4-(1-methoxycyclopropane-1-carbonyl)-2,3,4,5-tetrahydrobenzo[f][1,4]oxazepine-8-carboxamide]", "pIC50": "≥ 7.00"}, {"smiles": "O=C(NO)c1cnc2c(n1)OCCN(C(=O)C1CCCCC1)C2", "note": "[8-(cyclohexanecarbonyl)-N-hydroxy-6,7,8,9-tetrahydropyrazino[2,3-f][1,4]oxazepine-3-carboxamide]", "pIC50": "≥ 7.00"}, {"smiles": "CC(C)(C(=O)N1CCOc2cc(C(=O)NO)ccc2C1)c1ccccc1", "note": "[N-hydroxy-4-(2-methyl-2-phenylpropanoyl)-2,3,4,5-tetrahydrobenzo[f][1,4]oxazepine-8-carboxamide]", "pIC50": "6.30 to 7.00"}, {"smiles": "O=C(NO)c1ccc2c(c1)OCCN(C(=O)C1CC1c1ccccc1)C2", "note": "(stereo not shown) [N-hydroxy-4-(2-phenylcyclopropane-1-carbonyl)-2,3,4,5-tetrahydrobenzo[f][1,4]oxazepine-8-carboxamide]", "pIC50": "≥ 7.00"}, {"smiles": "O=C(NO)c1ccc2c(c1)OCCN(C(=O)C1(Cc3ccccc3)CC1)C2", "note": "[4-(1-benzylcyclopropane-1-carbonyl)-N-hydroxy-2,3,4,5-tetrahydrobenzo[f][1,4]oxazepine-8-carboxamide]", "pIC50": "≥ 7.00"}, {"smiles": "C[C@H]1COc2cc(C(=O)NO)ccc2CN1C(=O)[C@H]1CCOC(C)(C)C1", "note": "[(S)-4-((S)-2,2-dimethyltetrahydro-2H-pyran-4-carbonyl)-N-hydroxy-3-methyl-2,3,4,5-tetrahydrobenzo[f][1,4]oxazepine-8-carboxamide]", "pIC50": "≥ 7.00"}, {"smiles": "C[C@H]1c2ccc(C(=O)NO)cc2OCCN1C(=O)[C@@H]1CCOC1", "note": "[(S)-N-hydroxy-5-methyl-4-((R)-tetrahydrofuran-3-carbonyl)-2,3,4,5-tetrahydrobenzo[f][1,4]oxazepine-8-carboxamide]", "pIC50": "≥ 7.00"}, {"smiles": "O=C(NO)c1ccc2c(c1)O[C@@H](c1ccccc1)CN(C(=O)C1CCOCC1)C2", "note": "[(S)-N-hydroxy-2-phenyl-4-(tetrahydro-2H-pyran-4-carbonyl)-2,3,4,5-tetrahydrobenzo[f][1,4]oxazepine-8-carboxamide]", "pIC50": "≥ 7.00"}, {"smiles": "O=C(NO)c1ccc2c(c1)OCCN(C(=O)C1CCC3(CCNC3)CC1)C2", "note": "(stereo not shown) [N-hydroxy-4-(2-azaspiro[4.5]decane-8-carbonyl)-2,3,4,5-tetrahydrobenzo[f][1,4]oxazepine-8-carboxamide]", "pIC50": "≥ 7.00"}, {"smiles": "O=C(NO)c1ccc2c(c1)OCCN(C(=O)C1(c3ccccc3)CCC1)C2", "note": "[N-hydroxy-4-(1-phenylcyclobutane-1-carbonyl)-2,3,4,5-tetrahydrobenzo[f][1,4]oxazepine-8-carboxamide]", "pIC50": "≥ 7.00"}, {"smiles": "C[C@@H]1c2ccc(C(=O)NO)cc2OCCN1C(=O)C1(C)CCC1", "note": "[(R)-N-hydroxy-5-methyl-4-(1-methylcyclobutane-1-carbonyl)-2,3,4,5-tetrahydrobenzo[f][1,4]oxazepine-8-carboxamide]", "pIC50": "< 6.30"}, {"smiles": "C[C@@H]1c2cc(C(=O)NO)ccc2OCCN1C(=O)C1(C)CCC1", "note": "[(R)-N-hydroxy-5-methyl-4-(1-methylcyclobutane-1-carbonyl)-2,3,4,5-tetrahydrobenzo[f][1,4]oxazepine-7-carboxamide]", "pIC50": "≥ 7.00"}, {"smiles": "C[C@H]1c2ccc(C(=O)NO)cc2OCCN1C(=O)C1(C)CCC1", "note": "[(S)-N-hydroxy-5-methyl-4-(1-methylcyclobutane-1-carbonyl)-2,3,4,5-tetrahydrobenzo[f][1,4]oxazepine-8-carboxamide]", "pIC50": "≥ 7.00"}, {"smiles": "O=C(NO)c1ccc2c(c1)OCCN(C(=O)Cc1ccccc1Oc1ccccc1)C2", "note": "[N-hydroxy-4-(2-(2-phenoxyphenyl)acetyl)-2,3,4,5-tetrahydrobenzo[f][1,4]oxazepine-8-carboxamide]", "pIC50": "< 6.30"}, {"smiles": "O=C(NO)c1ccc2c(c1)OCCN(C(=O)C1CCC(F)(F)CC1)C2", "note": "[4-(4,4-difluorocyclohexane-1-carbonyl)-N-hydroxy-2,3,4,5-tetrahydrobenzo[f][1,4]oxazepine-8-carboxamide]", "pIC50": "6.30 to 7.00"}, {"smiles": "C[C@H]1COc2cc(C(=O)NO)ccc2CN1C(=O)[C@@H]1CCOC1", "note": "[(S)-N-hydroxy-3-methyl-4-((R)-tetrahydrofuran-3-carbonyl)-2,3,4,5-tetrahydrobenzo[f][1,4]oxazepine-8-carboxamide]", "pIC50": "≥ 7.00"}, {"smiles": "C[C@H]1COc2cc(C(=O)NO)ccc2CN1C(=O)c1ccc(F)cc1", "note": "[(S)-4-(4-fluorobenzoyl)-N-hydroxy-3-methyl-2,3,4,5-tetrahydrobenzo[f][1,4]oxazepine-8-carboxamide]", "pIC50": "≥ 7.00"}, {"smiles": "C[C@H]1COc2cc(C(=O)NO)ccc2CN1C(=O)C1CCN(C=O)CC1", "note": "[(S)-4-(1-formylpiperidine-4-carbonyl)-N-hydroxy-3-methyl-2,3,4,5-tetrahydrobenzo[f][1,4]oxazepine-8-carboxamide]", "pIC50": "≥ 7.00"}, {"smiles": "O=C1CN(C(=O)C2CCCCC2)Cc2cc(C(=O)NO)ccc2N1", "note": "[4-(cyclohexanecarbonyl)-N-hydroxy-2-oxo-2,3,4,5-tetrahydro-1H-benzo[e][1,4]diazepine-7-carboxamide]", "pIC50": "< 6.30"}, {"smiles": "CC(C)(C(=O)N1CCOc2cc(C(=O)NO)ccc2C1)c1ccc2c(c1)OCCO2", "note": "[4-(2-(2,3-dihydrobenzo[b][1,4]dioxin-6-yl)-2-methylpropanoyl)-N-hydroxy-2,3,4,5-tetrahydrobenzo[f][1,4]oxazepine-8-carboxamide]", "pIC50": "6.30 to 7.00"}, {"smiles": "C[C@@H]1COc2cc(C(=O)NO)ccc2CN1C(=O)C1(C)CCC1", "note": "[(R)-N-hydroxy-3-methyl-4-(1-methylcyclobutane-1-carbonyl)-2,3,4,5-tetrahydrobenzo[f][1,4]oxazepine-8-carboxamide]", "pIC50": "6.30 to 7.00"}, {"smiles": "COc1cccc(C(=O)N2CCOc3cc(C(=O)NO)ccc3C2)c1", "note": "[N-hydroxy-4-(3-methoxybenzoyl)-2,3,4,5-tetrahydrobenzo[f][1,4]oxazepine-8-carboxamide]", "pIC50": "6.30 to 7.00"}, {"smiles": "C[C@H]1COc2cc(C(=O)NO)ccc2CN1C(=O)C(C)(C)CO", "note": "[(S)-N-hydroxy-4-(3-hydroxy-2,2-dimethylpropanoyl)-3-methyl-2,3,4,5-tetrahydrobenzo[f][1,4]oxazepine-8-carboxamide]", "pIC50": "≥ 7.00"}, {"smiles": "O=C(NO)c1ccc2c(c1)OCCN(C(=O)C1CC1)C2", "note": "[4-(cyclopropanecarbonyl)-N-hydroxy-2,3,4,5-tetrahydrobenzo[f][1,4]oxazepine-8-carboxamide]", "pIC50": "6.30 to 7.00"}, {"smiles": "COc1ccc(C(=O)N2CCOc3ccc(C(=O)NO)cc3C2)cc1", "note": "[N-hydroxy-4-(4-methoxybenzoyl)-2,3,4,5-tetrahydrobenzo[f][1,4]oxazepine-7-carboxamide]", "pIC50": "< 6.30"}, {"smiles": "O=C(NO)c1ccc2c(c1)OCCN(C(=O)C1CCC(F)(F)C1)C2", "note": "(stereo not shown) [4-(3,3-difluorocyclopentane-1-carbonyl)-N-hydroxy-2,3,4,5-tetrahydrobenzo[f][1,4]oxazepine-8-carboxamide]", "pIC50": "≥ 7.00"}]}]}
